In patent publication US10508120B2, “TYK2 inhibitors and uses thereof” (Nimbus Lakshmi, Inc., priority 2017, dated 2019):

What follows are compounds tested against human TYK2 (JH2domain-pseudokinase) (Homo sapiens (Human), UniProt P29597) (assay: TYK2 JH2 Domain Binding Assay (KINOMEscan)).
human TYK2 (JH2domain-pseudokinase), sequence (P29597 556-888): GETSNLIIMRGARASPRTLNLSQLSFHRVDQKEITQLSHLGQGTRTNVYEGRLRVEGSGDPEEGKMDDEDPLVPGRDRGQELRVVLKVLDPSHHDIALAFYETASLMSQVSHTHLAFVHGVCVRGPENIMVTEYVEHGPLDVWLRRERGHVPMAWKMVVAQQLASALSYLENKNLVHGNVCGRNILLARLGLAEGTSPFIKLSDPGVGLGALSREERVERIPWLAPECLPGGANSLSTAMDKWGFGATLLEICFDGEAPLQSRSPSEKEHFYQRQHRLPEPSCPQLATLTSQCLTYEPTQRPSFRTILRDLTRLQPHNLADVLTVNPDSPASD
Method: Binding constants for compounds of the present invention against the JH2 domain were determined by the following protocol for a KINOMEscan® assay (DiscoveRx). A fusion protein of a partial length construct of human TYK2 (JH2domain-pseudokinase) (amino acids G556 to D888 based on reference sequence NP_003322.3) and the DNA binding domain of NFkB was expressed in transiently transfected HEK293 cells. From these HEK 293 cells, extracts were prepared in M-PER extraction buffer (Pierce) in the presence of Protease Inhibitor Cocktail Complete (Roche) and Phosphatase Inhibitor Cocktail Set II (Merck) per manufacturers' instructions. The TYK2 (JH2domain-pseudokinase) fusion protein was labeled with a chimeric double-stranded DNA tag containing the NFkB binding site (5′-[…]-3′) fused to an amplicon for qPCR readout, which was added directly to the expression extract (the final concentration of DNA-tag in the binding reaction is 0.1 nM).
The liganded beads were blocked with excess biotin and washed with blocking buffer (SeaBlock (Pierce), 1% BSA, 0.05% Tween 20, 1 mM DTT) to remove unbound ligand and to reduce nonspecific binding.
Extracts were used directly in binding assays without any enzyme purification steps at a ≥10,000-fold overall stock dilution (final DNA-tagged enzyme concentration <0.1 nM). Extracts were loaded with DNA-tag and diluted into the binding reaction in a two step process. First extracts were diluted 1:100 in 1× binding buffer (PBS/0.05% Tween 20/10 mM DTT/0.1% BSA/2 μg/ml sonicated salmon sperm DNA) containing 10 nM DNA-tag. This dilution was allowed to equilibrate at room temperature for 15 minutes and then subsequently diluted 1:100 in 1× binding buffer. […] Kds were determined using an 11-point 3-fold compound dilution series with three DMSO control points. […] The compounds were then diluted directly into the assays such that the final concentration of DMSO was 0.9%. All reactions performed in polypropylene 384-well plates. Each was a final volume of 0.02 mL. Assays were incubated with shaking for 1 hour at room temperature. Then the beads were pelleted and washed with wash buffer (1×PBS, 0.05% Tween 20) to remove displaced kinase and test compound. […] The qPCR protocol consisted of a 10 minute hot start at 95° C., followed by 35 cycles of 95° C. for 15 seconds, 60° C. for 1 minute.
Kds were determined using an 11-point 3-fold compound dilution series with three DMSO control points. […] The compounds were then diluted directly into the assays such that the final concentration of DMSO was 0.9%. The Kds were determined using a compound top concentration of 30,000 nM. Kd measurements were performed in duplicate.
Binding constants (Kds) were calculated with a standard dose-response curve using the Hill equation: […]
The Hill Slope was set to −1.
`CNc1cc(-c2cn(C3CCOCC3)c3ncccc23)nc2c(C(=O)N[C@@H]3CCC[C@@H](O)C3)cnn12` (stereo in doubt) [I-1359, N-(3-hydroxycyclohexyl)-7-(methylamino)-5-(1-(tetrahydro-2H-pyran-4-yl)-1H-pyrrolo[2,3-b]pyridin-3-yl)pyrazolo[1,5-a]pyrimidine-3-carboxamide] showed a Kd of under 0.2 nM.
Compound `CNc1cc(Nc2cccn(C(C)C)c2=O)nc2c(C(=O)N[C@@H]3CC[C@]3(C)O)cnn12` [I-1370] has a Kd of 1 to 10 nM.
For `CNc1cc(Nc2cccn([C@@H]3CCC[C@H](O)C3)c2=O)nc2c(C(=O)N[C@@H]3CC[C@H]3OC)cnn12` [I-1190], the Kd was under 0.2 nM.
For `CNc1cc(Nc2cccn(C(C)C)c2=O)nc2c(C(=O)N[C@@H]3COC[C@@H]3O)cnn12` [I-1301], the Kd was 0.2 to 1 nM.
Work on `CNc1cc(Nc2cccn([C@@H]3CCCN(CCC#N)C3)c2=O)nc2c(C(=O)NC3CC3)cnn12` [I-1346, (R)-5-((1-(1-(2-cyanoethyl)piperidin-3-yl)-2-oxo-1,2-dihydropyridin-3-yl)amino)-N-cyclopropyl-7-(methylamino)pyrazolo[1,5-a]pyrimidine-3-carboxamide] yielded a Kd of under 0.2 nM.
`CNc1cc(-c2cn([C@H]3CCCOC3)c3ncccc23)nc2c(C(=O)N[C@H]3COC[C@H]3O)cnn12` (mixture of isomers) [I-1251, N-(4-hydroxytetrahydrofuran-3-yl)-7-(methylamino)-5-(1-((S)-tetrahydro-2H-pyran-3-yl)-1H-pyrrolo[2,3-b]pyridin-3-yl)pyrazolo[1,5-a]pyrimidine-3-carboxamide] showed a Kd of 1 to 10 nM.
`CNc1cc(Nc2cccn(C(C)C)c2=O)nc2c(C(=O)N[C@H]3CCC[C@]3(C)O)cnn12` [I-1241] gave a Kd of under 0.2 nM.
In the case of `CNc1cc(-c2cn([C@@H]3CCCOC3)c3ncccc23)nc2c(C(=O)N[C@H]3COC[C@H]3O)cnn12` [I-1185], the Kd is reported as 1 to 10 nM.
`CNc1cc(-c2cn(C3CCOCC3)c3ncccc23)nc2c(C(=O)N[C@H]3COC[C@H]3O)cnn12` [I-1408] showed a Kd of 0.2 to 1 nM.
For `CNc1cc(-c2cn(C(C)C)c3ncccc23)nc2c(C(=O)N[C@H]3CC[C@@]3(C)O)cnn12` [I-1409], the Kd was 0.2 to 1 nM.
Compound `CNc1cc(Nc2cccn(-c3cccc(F)c3)c2=O)nc2c(C(=O)N[C@H]3COC[C@H]3O)cnn12` [I-1407] has a Kd of under 0.2 nM.
With `CNc1cc(Nc2cccn([C@H]3CC[C@@H](OC)CC3)c2=O)nc2c(C(=O)N[C@H]3CC[C@@H]3O)cnn12` [I-1291] the Kd was 1 to 10 nM.
With `CNc1cc(Nc2cccn([C@@H]3CCC[C@H](C#N)C3)c2=O)nc2c(C(=O)NC3CC3)cnn12` [I-1244] the Kd was under 0.2 nM.
With `CNc1cc(Nc2cc(Cl)cnc2O[C@@H]2CCOC2)nc2c(C(N)=O)cnn12` [I-84] the Kd was 0.2 to 1 nM.
For `CNc1cc(-c2cn([C@@H]3CCC[C@H]3OC)c3ncccc23)nc2c(C(=O)N[C@@H]3CC[C@@H]3O)cnn12` [I-1247, N-((1R,2S)-2-hydroxycyclobutyl)-5-(1-((1R,2R)-2-methoxycyclopentyl)-1H-pyrrolo[2,3-b]pyridin-3-yl)-7-(methylamino)pyrazolo[1,5-a]pyrimidine-3-carboxamide], the Kd was under 0.2 nM.
`CNc1cc(-c2cn(C(C)C)c3ncccc23)nc2c(C(=O)N[C@@H]3CC[C@]3(C)O)cnn12` [I-1326] was tested, and the Kd was under 0.2 nM.
In the case of `CNc1cc(Nc2cccn(C(C)C)c2=O)nc2c(C(=O)N[C@H]3CC[C@@]3(C)O)cnn12` [I-1371], the Kd is reported as under 0.2 nM.
`CNc1cc(Nc2cccn([C@@H]3CCCC[C@@H]3O)c2=O)nc2c(C(=O)N[C@@H]3CC[C@H]3OC)cnn12` [I-1339] was tested, and the Kd was 0.2 to 1 nM.
Compound `CNc1cc(Nc2cccn([C@@H]3CCC[C@@H]3OC)c2=O)nc2c(C(=O)NC3CC3)cnn12` [I-524] has a Kd of 1 to 10 nM.
For `CNc1cc(Nc2cccn(C3CC(F)(F)C3)c2=O)nc2c(C(=O)N[C@@H]3CC[C@@H]3O)cnn12` [I-1391], the Kd was under 0.2 nM.
With `CNc1cc(Nc2cc(F)cn(C3CCCOC3)c2=O)nc2c(C(=O)N[C@@H]3C[C@@H]3F)cnn12` (stereo partly drawn) [I-521] the Kd was under 0.2 nM.
Compound `CNc1cc(-c2cn(C3CC3)c3ncccc23)nc2c(C(=O)N[C@@H]3CCC[C@@]3(C)O)cnn12` [I-1280] has a Kd of under 0.2 nM.
In the case of `CNc1cc(Nc2cccn(-c3cccc(F)c3)c2=O)nc2c(C(=O)N[C@H]3COC[C@H]3O)cnn12` [I-1304], the Kd is reported as 0.2 to 1 nM.
For `CNc1cc(-c2cn([C@@H]3CCCOC3)c3ncccc23)nc2c(C(=O)N[C@H]3CC[C@@H]3OC)cnn12` [I-1268], the Kd was over 10 nM.
For `CNc1cc(-c2cn(C3CC3)c3ncccc23)nc2c(C(=O)N[C@H]3CCC[C@]3(C)O)cnn12` [I-1281], the Kd was 0.2 to 1 nM.
`CNc1cc(Nc2cccn([C@H]3C[C@@H]3OC)c2=O)nc2c(C(=O)NC3CC3)cnn12` [I-1228] gave a Kd of 1 to 10 nM.
In the case of `CNc1cc(Nc2cccn(C3CCOCC3)c2=O)nc2c(C(=O)N[C@H]3CCCC[C@]3(C)O)cnn12` [I-1197], the Kd is reported as under 0.2 nM.
With `CNc1cc(Nc2cccn([C@@H]3CCCC[C@@H]3O)c2=O)nc2c(C(=O)N[C@H]3CC[C@@H]3OC)cnn12` [I-1338] the Kd was 0.2 to 1 nM.
`CNc1cc(Nc2cccn([C@@H]3CCCOC3)c2=O)nc2c(C(=O)N[C@@H]3CCC[C@@](C)(OC)C3)cnn12` [I-1236] gave a Kd of under 0.2 nM.
`CNc1cc(Nc2cccn([C@@H]3C[C@H]3F)c2=O)nc2c(C(=O)N[C@@H]3CC[C@H](O)C3)cnn12` [I-1203] was tested, and the Kd was under 0.2 nM.
With `CNc1cc(Nc2cccn([C@@H]3CCCOC3)c2=O)nc2c(C(=O)N[C@H]3C[C@@H]3OC)cnn12` [I-1414] the Kd was over 10 nM.
`CNc1cc(Nc2cccn(C3CCOCC3)c2=O)nc2c(C(=O)N[C@@H]3CCC[C@@H](O)C3)cnn12` [I-1226] was tested, and the Kd was 1 to 10 nM.
Compound `CNc1cc(-c2cn([C@H]3CCC[C@@H]3OC)c3ncccc23)nc2c(C(=O)NC3CCC3O)cnn12` (mixture of isomers) [I-1340, N-(2-hydroxycyclobutyl)-5-(1-((1S,2S)-2-methoxycyclopentyl)-1H-pyrrolo[2,3-b]pyridin-3-yl)-7-(methylamino)pyrazolo[1,5-a]pyrimidine-3-carboxamide] has a Kd of 1 to 10 nM.
In the case of `CNc1cc(-c2cn([C@@H]3CCCOC3)c3ncccc23)nc2c(C(=O)N[C@@H]3CC[C@H]3OC)cnn12` [I-1267], the Kd is reported as under 0.2 nM.
`CNc1cc(-c2cn([C@@H]3CCC[C@H]3OC)c3ncccc23)nc2c(C(=O)NC3CCC3O)cnn12` (mixture of isomers) [I-1341, N-(2-hydroxycyclobutyl)-5-(1-((1R,2R)-2-methoxycyclopentyl)-1H-pyrrolo[2,3-b]pyridin-3-yl)-7-(methylamino)pyrazolo[1,5-a]pyrimidine-3-carboxamide] gave a Kd of over 10 nM.
Work on `CCO[C@H]1CC[C@@H]1NC(=O)c1cnn2c(NC)cc(Nc3cccn(-c4ccccn4)c3=O)nc12` [I-1231] yielded a Kd of under 0.2 nM.
Compound `CNc1cc(Nc2cccn([C@H]3CCC[C@@H](C#N)C3)c2=O)nc2c(C(=O)N[C@@H]3C[C@@H]3F)cnn12` [I-1220] has a Kd of 0.2 to 1 nM.
For `CNc1cc(Nc2cccn(C3CC(F)(F)C3)c2=O)nc2c(C(=O)N[C@H]3CC[C@@H]3O)cnn12` [I-1390], the Kd was 1 to 10 nM.
With `CNc1cc(-c2cn(C3CCOCC3)c3ncccc23)nc2c(C(=O)N[C@@H]3CCC[C@@]3(C)O)cnn12` [I-1221] the Kd was 0.2 to 1 nM.
With `CNc1cc(-c2cn([C@H]3CCCOC3)c3ncccc23)nc2c(C(=O)N[C@H]3CC[C@H]3O)cnn12` [I-1258] the Kd was over 10 nM.
`CNc1cc(Nc2cccn([C@H]3C[C@@H]3F)c2=O)nc2c(C(=O)N[C@H]3CC[C@@H]3O)cnn12` [I-1278] gave a Kd of 0.2 to 1 nM.
`CNc1cc(Nc2cccn(-c3ocnc3C)c2=O)nc2c(C(=O)N[C@H]3CC[C@H]3O)cnn12` [I-1259] gave a Kd of over 10 nM.
With `CNc1cc(-c2cn(C(C)C)c3ncccc23)nc2c(C(=O)N[C@H]3CC[C@@]3(C)O)cnn12` [I-1327] the Kd was under 0.2 nM.
Work on `CNc1cc(Nc2cccn(C(C)C)c2=O)nc2c(C(=O)N[C@@H]3CC[C@H](O)C3)cnn12` [I-1266] yielded a Kd of under 0.2 nM.
`CNc1cc(-c2cn(C(C)C)c3ncc(F)cc23)nc2c(C(=O)N[C@@H]3CC[C@@H]3O)cnn12` [I-1386] gave a Kd of 1 to 10 nM.
Compound `CNc1cc(-c2cn(CCCO)c3ncc(F)cc23)nc2c(C(=O)N[C@H]3CC[C@@H]3OC)cnn12` [I-1230] has a Kd of 0.2 to 1 nM.
In the case of `CNc1cc(Nc2cccn(C(C)C)c2=O)nc2c(C(=O)N[C@@H]3CCCC[C@@]3(C)O)cnn12` [I-1276], the Kd is reported as 0.2 to 1 nM.
`CNc1cc(Nc2cccn(-c3cccnc3)c2=O)nc2c(C(=O)N[C@H]3CCC[C@H](OC)C3)cnn12` [I-1217] was tested, and the Kd was under 0.2 nM.
For `CNc1cc(Nc2cccn(C3CCOCC3)c2=O)nc2c(C(=O)N[C@@H]3CC[C@H](O)C3)cnn12` [I-1357], the Kd was over 10 nM.
In the case of `CNc1cc(-c2cn(C3CCOCC3)c3ncccc23)nc2c(C(=O)N[C@H]3CCC[C@]3(C)O)cnn12` [I-1222], the Kd is reported as under 0.2 nM.
`CNc1cc(Nc2cccn(C3CC(F)(F)C3)c2=O)nc2c(C(=O)N[C@@H]3CC[C@@H](OC)C3)cnn12` [I-1210] showed a Kd of 0.2 to 1 nM.
